According to patent publication US9993444B2, “Use of beta-adrenergic inverse agonists for smoking cessation” (INVION, INC., priority 2011, dated 2018):
“Also recorded” adds a separate entry of the source.

Legend:
[1] = acute administration; U.S. Pat. No. 6,284,800; cited from earlier work
β-adrenergic receptor = settings: cited from earlier work
asthmatic mice [2] = assay: Lung histology (periodic acid-Schiff stain, goblet cells/mucus) after chronic inverse agonist treatment of ovalbumin-sensitized and -challenged mice; assay type: in vivo, Balb/cJ mice
Experimental: (§1) Mice were made asthmatic by sensitization to the antigen ovalbumin. Balb/cJ mice aged 6 weeks (Jackson Animal Laboratory, Bar Harbor, Me.) were housed under specific pathogen-free conditions and fed a chicken ovalbumin-free diet. Mice were sensitized with subcutaneous injection of 25 μg of ovalbumin adsorbed to aluminum hydroxide on protocol days 2, 9, and 16. Subsequently, mice were given […] of saline solution containing 25 μg of ovalbumin intranasally, on a daily basis, from protocol days 23 through 27. A group of ovalbumin-sensitized saline-challenged mice serves as controls for systemic sensitization and respiratory challenges with ovalbumin. Prior to intranasal administrations, mice were sedated with halothane vapor. For the study of this Example, ovalbumin-sensitized and ovalbumin-challenged mice, and ovalbumin-sensitized and saline-challenged mice will be referred to as asthmatic mice and control mice, respectively.
(§2) Animals received drug treatment for 7 days from day 21 to 27 of the sensitization/challenging protocol; ICI-118,551 at 10 mg/kg, was administered 3 times a day subcutaneously by osmotic minipump (Alzet®, #2004, Durect Corporation, Cupertino, Calif.). ICI-118,551 was dissolved in 50% DMSO. […]

[3] = test system: tracheas from asthmatic mice; settings: chronically treated asthmatic mice, excised tracheas; WO 02/29534; cited from earlier work
asthmatic mice [4] = assay: Lung histology (hematoxylin-eosin) after chronic inverse agonist treatment of ovalbumin-sensitized and -challenged mice; assay type: in vivo, Balb/cJ mice; settings: ICI-118,551 10 mg/kg subcutaneously by osmotic minipump, 7 days (day 21 to 27)
Experimental: as §1, §2

[5] = test system: sensitized and challenged mice; assay: Airway hyperresponsiveness to methacholine in a mouse model of obstructive lung disease, chronic administration; assay type: in vivo; settings: for airway hyperresponsiveness: compared to untreated sensitized and challenged mice
Excerpt: Even though alprenolol is a β-adrenergic antagonist, it has partial agonist activity. Carvedilol is a β1/β2 non-selective adrenergic antagonist with α1-adrenergic antagonist activity.

patients with CHF = settings: cited from earlier work

CC(C)NC[C@@H](O)COc1cccc2ccccc12 [D-propranolol]
antigen-induced bronchoconstriction and airway hyperresponsiveness [1]: beneficial in inhibiting antigen-induced bronchoconstriction and reducing airway hyperresponsiveness
potency in inhibiting the β-adrenergic receptor relative to the L-form (β-adrenergic receptor; U.S. Pat. No. 5,116,867): 1/100
activity with respect to β-adrenergic receptors (β-adrenergic receptor; U.S. Pat. No. 6,284,800): inactive

Cc1ccc(OCC(O)C(C)NC(C)C)c2c1CCC2 (stereo not shown) [ICI 118,551]
appearance of lung epithelial cells, PAS stain (FIG. 6) (asthmatic mice [2]; ICI-118,551 10 mg/kg subcutaneously by osmotic minipump, 7 days (day 21 to 27)): appear substantially normal
transformation of lung epithelium from ciliated cells to mucus-producing goblet cells (FIGS. 1-6) (asthmatic mice [2]; chronic treatment): restores the airway epithelium to a normal healthy state; also recorded: substantially reversed the transformation of lung epithelium
rank of effectiveness on tracheal contraction in response to methacholine [3]: then ICI-118,551
appearance of lung epithelial cells, hematoxylin-eosin staining (FIG. 3) (asthmatic mice [4]): substantially returned to their normal appearance

CC(C)NC[C@H](O)COc1cccc2ccccc12 [L-form of propranolol, propranolol]
specific lung resistance [1]: increased specific lung resistance

C=CCc1ccccc1OCC(O)CNC(C)C (stereo not shown) [alprenolol]
airway hyperresponsiveness [5]: does not reduce airway hyperresponsiveness; also recorded: without any activity
rank of effectiveness on tracheal contraction in response to methacholine [3]: most effective compound

CC(C)(Cc1c[nH]c2ccccc12)NCC(O)COc1ccccc1C#N (stereo not shown) [bucindolol]
clinical outcome in congestive heart failure (mortality / benefit over placebo) (patients with CHF): failed to demonstrate any benefit over placebo

COc1ccccc1OCCNCC(O)COc1cccc2[nH]c3ccccc3c12 (stereo not shown) [carvedilol]
sensitivity of the responsiveness to methacholine [5]: shifts the sensitivity of the responsiveness to methacholine to lower concentrations
airway hyperresponsiveness [5]: does reduce airway hyperresponsiveness
rank of effectiveness on tracheal contraction in response to methacholine [3]: followed by carvedilol
clinical outcome in congestive heart failure (mortality / benefit over placebo) (patients with CHF): significant mortality reduction

COCCc1ccc(OCC(O)CNC(C)C)cc1 (stereo not shown) [metoprolol]
clinical outcome in congestive heart failure (mortality / benefit over placebo) (patients with CHF): significant mortality reduction
